In PMC11110238, “Synthesis of novel carbazole hydrazine-carbothioamide scaffold as potent antioxidant, anticancer and antimicrobial agents” (BMC Chemistry, 2024):

How the values were obtained:
[1] = DPPH radical scavenging assay; assay type: biochemical; details: 30 min, 517 nm
Method: To estimate the Carbazole derivatives' antioxidant potential, a solution of each compound (1 mM/mL) in methanol was serially diluted with methanol to obtain a concentration of 1, 2, 5, 10, 20, 50, and 100 µM/mL. Then, DPPH (2,2-diphenyl-1-picrylhydrazyl) reagent (Sigma, USA) was dissolved in 0.002% w/v methanol and mixed with the previously prepared working concentrations in a 1:1 ratio. The same procedures were repeated for Trolox (Sigma-Aldrich, Denmark), which was used as a positive control. All of the solutions were kept in the dark chamber for 30 min at an ordinary temperature. Then, their absorbance values were measured at a wavelength of 517 nm utilizing a UV–visible spectrophotometer. The DPPH inhibition potentials by Carbazole derivatives and Trolox were determined employing the following equation: DPPH inhibition(\%)=abs(blank)-abs(sample)/abs(blank)∗100\% where absblank is the blank absorbance and abssample is the absorbance of the samples [58]. The antioxidant half-maximal inhibitory concentration (IC50) of the synthesized carbazole derivatives and Trolox were assessed by using an online tool “Quest Graph™ IC50 Calculator.” AAT Bioquest, Inc., 25 May. 2023, https://www.aatbio.com/tools/ic50-calculator.

MCF-7 cell line = experiment: MTT cell viability, MCF-7 cancer cell line; assay type: cell-based; details: Homo sapiens, MCF7; MTT, 48 h; read-out: IC50 values Carbazole Derivatives Effect on MCF-7 Cell Line
Method: MCF-7 cancer cell lines were cultured at Dulbecco’s Modified Eagle Medium High Glucose (DMEM) (EuroClone, Via Figino, Italy); fetal bovine serum (FBS) and MTT (3-(4,5-Dimethylthiazol-2-yl)-2,5-Diphenyl Tetrazolium Bromide) were provided by Sigma-Aldrich (Darmstadt, Germany); ApopNexin Annexin-V-FITC with PI Apoptosis Kit was obtained from Merck (Darmstadt, Germany); Total RNA Isolation Kit was provided by Analytic Jena (Jena, Germany), SensiFast cDNA Synthesis Kit was provided by Meridian Bioscience (Cincinati, USA), SybrGreen Master Mix was obtained from EuroClone (Via Figino, Italy).
Cells (MCF-7 and L929) were incubated in 75 cm^2 sterile flasks with 10% FBS, 100 U/mL penicillin, and 100 µg/mL streptomycin. The cells were grown at 37 ^○C in 5% CO2, and MTT was used to screen the viability of the cells. Cells were seeded at a density of 10^4 cells per well. The cells were then cultured for 24 h in 100 µl of DMEM complete medium. After pretreatment with different concentrations of the compounds for 48 h, 10 µl of 5 mg/mL MTT solution was added to each well and incubated for 4 h at 37 ^○C, and 100 µl of DMSO was used in each well to dissolve the blue formazan crystals. Then, the absorbance was measured at 570 nm. The cell viability percentages of compound 4o against MCF-7 cancer cell lines and L929 normal cell lines were presented in Fig. 2 in comparison with doxorubicin anticancer agent.

Row | SMILES | IC50 [1] [µM] | IC50 (MCF-7 cell line) [µM] | melting point [°C]
1 | COc1cccc(NC(=S)NNC(=O)Cn2c3ccccc3c3ccccc32)c1 [Compound 4b, 2-(2-(9H-carbazol-9-yl)acetyl)-N-(3-methoxyphenyl)hydrazine-1-carbothioamide] | 5.15 ± 1.02 | > 20 | 218 to 220
2 | O=C(Cn1c2ccccc2c2ccccc21)NNC(=S)NCCCN1CCOCC1 [Compound 4c, 2-(2-(9H-carbazol-9-yl)acetyl)-N-(3-morpholinopropyl)hydrazine-1-carbothioamide] | 8.99 ± 2.17 | > 20 | 189 to 191
3 | CC(C)NC(=S)NNC(=O)Cn1c2ccccc2c2ccccc21 [Compound 4t, 2-(2-(9H-carbazol-9-yl)acetyl)-N-isopropylhydrazine-1-carbothioamide] | 15.9 ± 2.07 | > 20 | 186 to 188
4 | O=C(Cn1c2ccccc2c2ccccc21)NNC(=S)NCc1ccccc1 [Compound 4p, 2-(2-(9H-carbazol-9-yl)acetyl)-N-benzylhydrazine-1-carbothioamide] | 10.2 ± 1.85 | > 20 | 169 to 171
5 | Cc1ccc(NC(=S)NNC(=O)Cn2c3ccccc3c3ccccc32)cc1 [Compound 4n, 2-(2-(9H-carbazol-9-yl)acetyl)-N-(p-tolyl)hydrazine-1-carbothioamide] | 1.52 ± 0.58 | > 20 | 180 to 182
6 | COc1ccc(NC(=S)NNC(=O)Cn2c3ccccc3c3ccccc32)cc1 [Compound 4f, 2-(2-(9H-carbazol-9-yl)acetyl)-N-(4-methoxyphenyl)hydrazine-1-carbothioamide] | 3.41 ± 1.05 | > 20 | 210 to 212
7 | O=C(Cn1c2ccccc2c2ccccc21)NNC(=S)Nc1ccc(Cl)cc1 [Compound 4h, 2-(2-(9H-carbazol-9-yl)acetyl)-N-(4-chlorophenyl)hydrazine-1-carbothioamide] | 0.73 ± 0.54 | > 20 | 235 to 237
8 | O=C(Cn1c2ccccc2c2ccccc21)NNC(=S)NC1CC2CCC1C2 (stereo not shown) [Compound 4r, 2-(2-(9H-carbazol-9-yl)acetyl)-N-(bicyclo[2.2.1]heptan-2-yl)hydrazine-1-carbothioamide] | 19.9 ± 1.55 | 4.99 ± 0.42 | 199 to 201
9 | O=C(Cn1c2ccccc2c2ccccc21)NNC(=S)Nc1ccc(Br)cc1 [Compound 4g, 2-(2-(9H-carbazol-9-yl)acetyl)-N-(4-bromophenyl)hydrazine-1-carbothioamide] | 4.14 ± 0.75 | > 20 | 255 to 257
10 | Cc1c(C)c2c(c(C)c1O)CCC(C)(C(=O)O)O2 (stereo not shown) [Trolox, reference compound] | 7.71 ± 1.47 |  | 
11 | CNC(=S)NNC(=O)Cn1c2ccccc2c2ccccc21 [Compound 4z, 2-(2-(9H-carbazol-9-yl)acetyl)-N-methylhydrazine-1-carbothioamide] | 21.6 ± 0.87 | > 20 | 173 to 175
12 | O=C(Cn1c2ccccc2c2ccccc21)NNC(=S)Nc1cccc2ccccc12 [Compound 4d, 2-(2-(9H-carbazol-9-yl)acetyl)-N-(naphthalen-1-yl)hydrazine-1-carbothioamide] | 29.7 ± 1.77 | > 20 | 222 to 224
13 | O=C(Cn1c2ccccc2c2ccccc21)NNC(=S)NCCc1ccccc1 [Compound 4s, 2-(2-(9H-carbazol-9-yl)acetyl)-N-phenethylhydrazine-1-carbothioamide] | 3.05 ± 1.75 | > 20 | 170 to 172
14 | O=C(Cn1c2ccccc2c2ccccc21)NNC(=S)Nc1ccc(C(F)(F)F)cc1 [Compound 4k, 2-(2-(9H-carbazol-9-yl)acetyl)-N-(4-(trifluoromethyl)phenyl)hydrazine-1-carbothioamide] | 2.08 ± 0.72 | > 20 | 177 to 179
